Laboratory results published in patent US6869913B1, “Pyridazin-3-one derivatives, their use and intermediates for their production” (Sumitomo Chemical Company, Limited, priority 1995, dated 2005).

How the values were obtained:
Type in all cases: in vivo
[1] = test system: velvetleaf (Abutilon theophrash); experiment: Test Example 1: foliar treatment on upland fields; settings: 500 g/ha active ingredient; foliar spray; examined 19 days after application
Protocol: (§1) Cylindrical plastic pots of 10 cm in diameter and 10 cm in depth were filled with soil, in which the seeds of […] (Ipomoea hederacea var. integriuscula) and velvetleaf (Abutilon theophrash) were sowed, and the test plants were grown in a greenhouse for 19 days. Each of the test compounds listed below was formulated into an emulsifiable concentrate according to Formulation Example 2, which was diluted with water containing a spreading agent to a prescribed concentration. The dilution was uniformly sprayed over the foliage of the test plants with a sprayer at a volume of 1000 liters per hectare. After the application, the test plants were grown in the greenhouse for 19 days, and the herbicidal activity was examined.

[2] = test system: entireleaf morningglory (Ipomoea hederacea var. integriuscula); experiment: Test Example 1: foliar treatment on upland fields; settings: 500 g/ha active ingredient; foliar spray; examined 19 days after application
Protocol: as §1

[3] = test system: velvetleaf (Abutilon theophrash); experiment: Test Example 3: soil surface treatment on upland fields; settings: 500 g/ha active ingredient; soil surface spray; examined after 19 days
Protocol: (§2) Cylindrical plastic pots of 10 cm in diameter and […] in depth were filled with soil, in which the seeds of […] (Ipomoea hederacea var. integriuscula) and velvetleaf (Abutilon theophrash) were sowed. Each of the test compounds listed below was formulated into an emulsifiable concentrate according to Formulation Example 2, which was diluted with water to a prescribed concentration. The dilution was uniformly sprayed over the soil surface in the pots with a sprayer at a volume of 1000 liters per hectare. After the application, the test plants were grown in a greenhouse for 19 days, and the herbicidal activity was examined.

[4] = test system: entireleaf morningglory (Ipomoea hederacea var. integriuscula); experiment: as above; settings: 500 g/ha active ingredient; soil surface spray; examined after 19 days
Protocol: as §2

[5] = test system: barnyardgrass (Echinochloa oryzicola); experiment: Test Example 4: flooding treatment on paddy fields; settings: application amount of active ingredient 250 g/ha, examined 19 days after application, index 0 to 5
Protocol: Cylindrical plastic pots of 9 cm in diameter and 11 cm in depth were filled with soil, in which the seeds of barnyardgrass (Echinochloa oryzicola) were sowed. These pots were flooded to form a paddy field, and the test plants were grown in a greenhouse for 7 days. Each of the test compounds listed below was formulated into an emulsifiable concentrate according to Formulation Example 2, which was diluted with water to a prescribed concentration. The dilution was applied to the water surface in the pots at a volume of 50 liters per hectare. After the application, the test plants were grown in the greenhouse for 19 days, and the herbicidal activity was examined.

[6] = test system: catchweed bedstraw (Galium aparine); experiment: Test Example 6: foliar treatment on upland fields; settings: 63 g/ha active ingredient; foliar spray; 25 days after application
Excerpt: (§3) The herbicidal activity is excellent when rated at “4” or “5” but insufficient when rated at “3” or lower. The phytotoxicity is no problematic on practical use when rated at “0” or “1” but not allowed when rated at “2” or higher.
(§4) Plastic pots of 16×11 cm^2 in are and 7 cm in depth were filled with soil, in which the seeds of wheat (Triticum aestivum), pale smartweed (Polygonum lapathifolium), catchweed bedstraw (Galium aparine), and common chickweed (Stellaria media) were sowed, and the test plants were grown for 29 days. Each of the test compounds listed below was formulated into an emulsifiable concentrate according to Formulation Example 2, which was diluted with water to a prescribed concentration. The dilution was uniformly sprayed over the foliage of the test plants with a sprayer at a volume of 1000 liters per hectare. At this time, the unfavorable weeds and crop plants, although their growth state was different depending upon the weed species, were at the 1- to 4-leaf stage, and the plant height was 5 to 15 cm. After 25 days from the application, the herbicidal activity and phytotoxicity were examined. This test was made in a greenhouse over the entire period.

[7] = test system: pale smartweed (Polygonum lapathifolium); experiment: Test Example 6: foliar treatment on upland fields; settings: 63 g/ha active ingredient; foliar spray; 25 days after application
Excerpt: as §3, §4

[8] = test system: common chickweed (Stellaria media); experiment: Test Example 6: foliar treatment on upland fields; settings: 63 g/ha active ingredient; foliar spray; 25 days after application
Excerpt: as §3, §4

[9] = test system: velvetleaf (Abutilon theophrash); experiment: Test Example 2: foliar treatment on upland fields; parameters: key: rating; 4–5 = excellent activity, 3 or lower = insufficient; settings: 32 g/ha active ingredient; foliar spray; examined 19 days after application
Excerpt: as §3
(§5) Cylindrical plastic pots of 10 cm in diameter and 10 cm in depth were filled with soil, in which the seeds of barnyardgrass (Echinochloa crus-galli), entireleaf morningglory (Ipomoea hederacea var. integriuscula) and velvetleaf (Abutilon theophrash) were sowed, and the test plants were grown in a greenhouse for 19 days. Each of the test compounds listed below was formulated into an emulsifiable concentrate according to Formulation Example 2, which was diluted with water containing a spreading agent to a prescribed concentration. The dilution was uniformly sprayed over the foliage of the test plants with a sprayer at a volume of 1000 liters per hectare. After the application, the test plants were grown in the greenhouse for 19 days, and the herbicidal activity was examined.

[10] = test system: barnyardgrass (Echinochloa crus-galli); experiment: Test Example 2: foliar treatment on upland fields; parameters: key: rating; 4–5 = excellent activity, 3 or lower = insufficient; settings: 32 g/ha active ingredient; foliar spray; examined 19 days after application
Excerpt: as §3, §5

[11] = test system: entireleaf morningglory (Ipomoea hederacea var. integriuscula); experiment: Test Example 2: foliar treatment on upland fields; parameters: key: rating; 4–5 = excellent activity, 3 or lower = insufficient; settings: 32 g/ha active ingredient; foliar spray; examined 19 days after application
Excerpt: as §3, §5

[12] = test system: common lambsquarters (Chenopodium album); experiment: Test Example 5: foliar treatment on upland fields; settings: 63 g/ha active ingredient; foliar spray; 18 days after application
Excerpt: as §3
(§6) Plastic pots of 25×18 cm^2 in area and 7 cm in depth were filled with soil, in which the seeds of soybean (Glycine max), corn (Zea mays), entireleaf morningglory (Ipomoea hederacea var. integriuscula), common cocklebur (Xanthium pensylvanicum), common ragweed (Ambrosia artemisiifolia), and common lambsquarters (Chenopodium album) were sowed, and the test plants were grown for 16 days. Each of the test compounds listed below was formulated into an emulsifiable concentrate according to Formulation Example 2, which was diluted with water to a prescribed concentration. The dilution was uniformly sprayed over the foliage of the test plants with a sprayer at a volume of 1000 liters per hectare. At this time, the unfavorable weeds and crop plants, although their growth state was different depending upon the weed species, were at the 1- to 4-leaf stage, and the plant height was 5 to 20 cm. After 18 days from the application, the herbicidal activity and phytotoxicity were examined. This test was made in a greenhouse over the entire period.

[13] = test system: common ragweed (Ambrosia artemisiifolia); experiment: Test Example 5: foliar treatment on upland fields; settings: 63 g/ha active ingredient; foliar spray; 18 days after application
Excerpt: as §3, §6

[14] = test system: entireleaf morningglory (Ipomoea hederacea var. integriuscula); experiment: Test Example 5: foliar treatment on upland fields; settings: 63 g/ha active ingredient; foliar spray; 18 days after application
Excerpt: as §3, §6

[15] = test system: common cocklebur (Xanthium pensylvanicum); experiment: Test Example 5: foliar treatment on upland fields; settings: 63 g/ha active ingredient; foliar spray; 18 days after application
Excerpt: as §3, §6

[16] = test system: common lambsquarters (Chenopodium album); experiment: Test Example 7: soil surface treatment on upland fields; settings: 63 g/ha active ingredient; soil surface spray; examined after 19 days
Excerpt: as §3
(§7) Plastic pots of 25×18 cm^2 in area and 7 cm in depth were filled with soil, in which the seeds of soybean (Glycine max), corn (Zea mays), common lambsquarters (Chenopodium album), slender amaranth (Amaranthus gracilis), and pale smartweed (Polygonum lapathifolium) were sowed. Each of the test compounds listed below was formulated into an emulsifiable concentrate according to Formulation Example 2, which was diluted with water to a prescribed concentration. The dilution was uniformly sprayed over the soil surface in the pots with a sprayer at a volume of 1000 liters per hectare. After the application, the test plants were grown in a greenhouse for 19 days, and the herbicidal activity and phytotoxicity were examined.

[17] = test system: slender amaranth (Amaranthus gracilis); experiment: as above; settings: 63 g/ha active ingredient; soil surface spray; examined after 19 days
Excerpt: as §3, §7

[18] = test system: pale smartweed (Polygonum lapathifolium); experiment: as above; settings: 63 g/ha active ingredient; soil surface spray; examined after 19 days
Excerpt: as §3, §7

corn (Zea mays) = experiment: Test Example 5: foliar treatment on upland fields (phytotoxicity); settings: 63 g/ha active ingredient; foliar spray; 18 days after application
Excerpt: as §3, §6

soybean (Glycine max) = experiment: as above; settings: 63 g/ha active ingredient; foliar spray; 18 days after application
Excerpt: as §3, §6

Molecule | Herbicidal activity Velvetleaf [1] | Herbicidal activity Entireleaf morningglory [2] | Herbicidal activity Velvetleaf [3] | Herbicidal activity Entireleaf morningglory [4] | Herbicidal activity Barnyardgrass [5] | Herbicidal activity and phytotoxicity Catchweed bedstraw [6] | Herbicidal activity and phytotoxicity Pale smartweed [7] | Herbicidal activity and phytotoxicity Common chickweed [8] | Herbicidal activity Velvetleaf [9] | Herbicidal activity Barnyardgrass [10] | Herbicidal activity Entireleaf morningglory [11] | Herbicidal activity and phytotoxicity Common lambsquarters [12] | Herbicidal activity and phytotoxicity Common ragweed [13] | Herbicidal activity and phytotoxicity Entireleaf morningglory [14] | Herbicidal activity and phytotoxicity Common cocklebur [15] | Herbicidal activity and phytotoxicity Common lambsquarters [16] | Herbicidal activity and phytotoxicity Slender amaranth [17] | Herbicidal activity and phytotoxicity Pale smartweed [18] | Herbicidal activity and phytotoxicity Corn (corn (Zea mays)) | Herbicidal activity and phytotoxicity Soybean (soybean (Glycine max))
C#CCOc1cc(-n2ncc(C(F)(F)F)c(C)c2=O)c(F)cc1Cl [Compound 1-486, 2-(4-Chloro-2-fluoro-5-propargyloxyphenyl)-4-methyl-5-trifluoromethylpyridazin-3-one] | 5 | 5 | 5 | 5 | 5 | 5 | 5 | 5 | 5 | 4 | 5 |  |  |  |  |  |  |  |  | 
CCOC(=O)COc1cc(-n2ncc(C(F)(F)F)c(C)c2=O)c(F)cc1Cl [Compound 1-496, Ethyl 2-chloro-4-fluoro-5-(4-methyl-5-trifluoromethyl-3-pyridazinon-2-yl)phenoxyacetate] | 5 | 5 | 5 | 5 | 5 | 5 | 4 | 4 | 5 | 5 | 5 | 5 | 5 | 5 | 5 |  |  |  |  | 
CCOC(=O)c1cc(-n2ncc(C(F)(F)F)c(C)c2=O)c(F)cc1Cl [Compound 1-642, Ethyl 2-chloro-4-fluoro-5-(4-methyl-5-trifluoromethyl-3-pyridazinon-2-yl)benzoate] | 5 | 5 | 5 | 5 | 5 |  |  |  | 5 | 5 | 5 |  |  |  |  | 5 | 5 | 5 |  | 
C#CCN1C(=O)COc2ccc(-n3ncc(C(F)(F)F)c(C)c3=O)cc21 [Compound 2-203, 6-(4-Methyl-5-trifluoromethyl-3-pyridazinon-2-yl)-4-propargyl-2H-1,4-benzoxazin-3-one] | 5 | 5 | 5 | 5 | 5 |  |  |  | 5 | 4 | 5 |  |  |  |  | 5 | 5 | 5 |  | 
C#CCN1C(=O)COc2cc(F)c(-n3ncc(C(F)(F)F)cc3=O)cc21 [Compound 2-631, 7-Fluoro-6-(5-trifluoromethyl-3-pyridazinon-2-yl)-4-propargyl-2H-1,4-benzoxazin-3-one] | 5 | 5 | 5 | 5 | 5 |  |  |  | 5 | 5 | 5 |  |  |  |  | 5 | 5 | 5 |  | 
Pentyl 2-chloro-4-fluoro-5-(4-methyl-5-trifluoromethyl-3-pyridazinon-2-yl) phenoxyacetate [Compound 1-499] | 5 | 5 | 5 | 5 | 5 |  |  |  | 5 | 5 | 5 | 4 | 5 | 5 | 5 |  |  |  | 1 | 1
